Source: patent US20080009418A1, “Selective Inhibitors” (Alchemia LTD., priority 2004, published 2008)

Experiments:
[1] = biological target: T1, Human neurokinin (NK1) (Homo sapiens, UniProt P25103); test: Radioligand binding, human neurokinin NK1 membranes, filtration, [125I]-Substance P; details: compound at 10 μM; for A8 radioligand binding inhibition: human neurokinin NK1 membranes
T1 construct: purchased Perkin Elmer Biosignal
Method in brief: (§1)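 Membranes from cloned human receptors were incubated with compound and radioligand for 1 hour at room temperature. Bound ligand was collected on 0.3% PEI-soaked filters, washed with cold 50 mM Tris-HCl pH 7.4, and counted by scintillation. Percent inhibition was computed against DMSO totals and reference-ligand nonspecific wells.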

[2] = biological target: T2, Human μ-opioid (MOP) (Homo sapiens, UniProt P35372); test: Radioligand binding, human μ-opioid (MOP) membranes, FlashPlate, [3H]-Naloxone; details: compound at 10 μM; for A7 radioligand binding inhibition: human μ-opioid (MOP) membranes
T2 construct: purchased Perkin Elmer Biosignal
Method in brief: (§2)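 Cloned human receptor membranes were coated onto FlashPlate wells and incubated with radioligand and compound (added from a 0.5 mM DMSO daughter plate) for 1 hour at room temperature in the dark. Scintillation counting gave percent inhibition, with DMSO defining total and reference ligand defining non-specific binding.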

[3] = biological target: T3, Human Melanocortin (MC3) (Homo sapiens, UniProt P41968); test: Radioligand binding, human melanocortin MC3 membranes, FlashPlate, [125I]-NDP-αMSH; details: compound at 10 μM; for A3 radioligand binding inhibition: human melanocortin MC3 membranes
T3 construct: purchased Perkin Elmer Biosignal
Method in brief: as §2

[4] = biological target: T4, Human melanin-concentrating hormone (MCH1) (Homo sapiens, UniProt Q99705); test: Radioligand binding, human melanin-concentrating hormone MCH1 membranes, FlashPlate, [125I]-S36057; details: compound at 10 μM; for A6 radioligand binding inhibition: human MCH1 membranes; for A6: inhibition of radioligand binding, human melanin-concentrating hormone (MCH1): [125I]-S36057
T4 construct: purchased Perkin Elmer Biosignal
Method in brief: as §2

[5] = biological target: T5, Human δ-opioid (DOP) (Homo sapiens, UniProt P41143); test: Radioligand binding, human δ-opioid (DOP) membranes, FlashPlate, [3H]-Bremazocine; details: compound at 10 μM; for A1 radioligand binding inhibition: human δ-opioid (DOP) membranes
T5 construct: purchased Perkin Elmer Biosignal
Method in brief: as §2

[6] = biological target: T6, Human neuropeptide Y (NPY-Y1) (Homo sapiens, UniProt P25929); test: Radioligand binding, human neuropeptide Y NPY-Y1 membranes, FlashPlate, [125I]-PYY; details: compound at 10 μM
T6 construct: purchased Perkin Elmer Biosignal
T6 sequence (P25929 1-384): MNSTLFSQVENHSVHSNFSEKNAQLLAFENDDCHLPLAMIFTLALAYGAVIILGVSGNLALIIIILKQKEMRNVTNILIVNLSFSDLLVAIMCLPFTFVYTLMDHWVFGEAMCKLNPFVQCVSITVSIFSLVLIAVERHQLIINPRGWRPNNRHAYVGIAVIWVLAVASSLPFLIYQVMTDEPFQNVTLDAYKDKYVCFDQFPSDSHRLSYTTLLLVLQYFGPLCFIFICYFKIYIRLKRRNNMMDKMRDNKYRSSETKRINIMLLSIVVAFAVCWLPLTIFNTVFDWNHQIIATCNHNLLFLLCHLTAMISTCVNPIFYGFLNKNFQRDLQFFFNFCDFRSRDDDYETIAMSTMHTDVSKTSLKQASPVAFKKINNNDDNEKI
Method in brief: as §2

[7] = biological target: T7, Mouse urotensin (mUR2) (Mus musculus, UniProt Q8VIH9); test: Radioligand binding, mouse urotensin mUR2 membranes, FlashPlate, [125I]-Urotensin II; details: compound at 10 μM; for A11 radioligand binding inhibition: mouse urotensin mUR2 membranes
T7 construct: purchased Perkin Elmer Biosignal
T7 sequence (Q8VIH9 1-385): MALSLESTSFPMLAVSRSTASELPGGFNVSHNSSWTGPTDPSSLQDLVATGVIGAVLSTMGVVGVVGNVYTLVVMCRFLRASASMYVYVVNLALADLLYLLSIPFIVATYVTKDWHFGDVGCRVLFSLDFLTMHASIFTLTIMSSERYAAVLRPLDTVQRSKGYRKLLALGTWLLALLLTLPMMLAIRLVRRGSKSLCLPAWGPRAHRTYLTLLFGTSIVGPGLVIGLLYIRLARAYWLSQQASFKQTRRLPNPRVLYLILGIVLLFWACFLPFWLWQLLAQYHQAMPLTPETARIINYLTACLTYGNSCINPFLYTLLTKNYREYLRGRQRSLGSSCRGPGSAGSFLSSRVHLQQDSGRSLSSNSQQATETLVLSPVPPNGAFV
Method in brief: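 Cloned mouse urotensin (mUR2) receptor membranes from Perkin Elmer Biosignal were immobilized in FlashPlate microplates using a proprietary coating. Each well got 19.5 μl buffer, then 0.5 μl of DMSO, reference ligand, or compound. Adding 5 μl of [125I]-Urotensin II, diluted to 5× final concentration in binding buffer, started binding. Plates were sealed with TopSeal-A and incubated 1 hour at room temperature in the dark. Wells were counted for 30 seconds each on a TopCount after a 60-second delay, and percentage inhibition was calculated.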

[8] = biological target: T8, Human melanocortin (MC5) (Homo sapiens, UniProt P33032); test: Radioligand binding, human melanocortin MC5 membranes, FlashPlate, [125I]-NDP-αMSH; details: compound at 10 μM; for A5 radioligand binding inhibition: human melanocortin MC5 membranes
T8 construct: purchased Perkin Elmer Biosignal
Method in brief: as §2

[9] = biological target: T9, Human opioid (ORL1) (Homo sapiens, UniProt P41146); test: Radioligand binding, human opioid ORL1 membranes, FlashPlate, [125I]-Nociceptin; details: compound at 10 μM
T9 construct: purchased Perkin Elmer Biosignal
Method in brief: as §2

[10] = biological target: T10, Human κ-Opioid (KOP) (Homo sapiens, UniProt P41145); test: Radioligand binding, human κ-opioid (KOP) membranes, filtration, [3H]-Diprenorphine; details: compound at 10 μM; for A2 radioligand binding inhibition: human κ-opioid (KOP) membranes
T10 construct: purchased Perkin Elmer Biosignal
Method in brief: as §1

[11] = biological target: T11, Human Melanocortin (MC4) (Homo sapiens, UniProt P32245); test: Radioligand binding, human melanocortin MC4 membranes, FlashPlate, [125I]-NDP-αMSH; details: compound at 10 μM; for A4 radioligand binding inhibition: human melanocortin MC4 membranes
T11 construct: purchased Perkin Elmer Biosignal
Method in brief: as §2

T11 sequence (P32245 whole entry): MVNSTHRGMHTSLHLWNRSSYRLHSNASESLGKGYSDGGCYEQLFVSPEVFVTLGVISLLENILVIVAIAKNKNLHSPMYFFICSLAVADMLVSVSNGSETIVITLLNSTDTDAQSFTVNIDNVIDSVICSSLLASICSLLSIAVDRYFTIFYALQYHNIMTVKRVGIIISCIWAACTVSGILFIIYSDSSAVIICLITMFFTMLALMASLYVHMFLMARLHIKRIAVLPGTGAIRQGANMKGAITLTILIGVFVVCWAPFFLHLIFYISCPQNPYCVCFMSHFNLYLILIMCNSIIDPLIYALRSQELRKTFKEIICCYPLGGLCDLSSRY
T4 sequence (Q99705 whole entry): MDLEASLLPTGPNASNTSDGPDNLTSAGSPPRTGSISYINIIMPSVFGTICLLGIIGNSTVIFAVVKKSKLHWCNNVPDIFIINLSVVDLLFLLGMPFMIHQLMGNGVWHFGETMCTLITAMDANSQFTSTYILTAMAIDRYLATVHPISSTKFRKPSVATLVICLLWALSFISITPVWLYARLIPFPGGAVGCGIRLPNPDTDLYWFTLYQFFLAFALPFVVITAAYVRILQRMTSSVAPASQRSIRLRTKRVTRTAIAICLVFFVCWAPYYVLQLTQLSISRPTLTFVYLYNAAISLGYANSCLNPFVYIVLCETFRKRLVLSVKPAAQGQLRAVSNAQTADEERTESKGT
T3 sequence (P41968 whole entry): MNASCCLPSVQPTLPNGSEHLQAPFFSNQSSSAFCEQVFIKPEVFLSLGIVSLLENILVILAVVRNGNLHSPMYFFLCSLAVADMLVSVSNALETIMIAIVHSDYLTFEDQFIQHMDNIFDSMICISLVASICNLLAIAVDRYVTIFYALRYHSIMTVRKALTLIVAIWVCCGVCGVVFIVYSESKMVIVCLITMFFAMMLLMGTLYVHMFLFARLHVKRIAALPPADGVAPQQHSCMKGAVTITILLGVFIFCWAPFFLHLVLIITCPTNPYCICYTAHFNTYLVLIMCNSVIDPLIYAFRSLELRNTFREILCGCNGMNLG
T1 sequence (P25103 whole entry): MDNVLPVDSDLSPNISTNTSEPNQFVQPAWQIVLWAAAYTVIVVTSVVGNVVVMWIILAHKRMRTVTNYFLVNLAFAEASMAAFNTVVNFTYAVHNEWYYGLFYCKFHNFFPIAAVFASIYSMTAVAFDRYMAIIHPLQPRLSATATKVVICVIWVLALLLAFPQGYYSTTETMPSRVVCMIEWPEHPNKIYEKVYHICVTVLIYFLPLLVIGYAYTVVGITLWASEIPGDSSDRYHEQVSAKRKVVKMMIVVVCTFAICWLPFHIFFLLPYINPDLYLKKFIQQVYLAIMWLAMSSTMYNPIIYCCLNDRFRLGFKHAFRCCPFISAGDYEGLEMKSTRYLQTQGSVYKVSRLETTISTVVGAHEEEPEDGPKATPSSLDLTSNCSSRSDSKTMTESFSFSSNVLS
T9 sequence (P41146 whole entry): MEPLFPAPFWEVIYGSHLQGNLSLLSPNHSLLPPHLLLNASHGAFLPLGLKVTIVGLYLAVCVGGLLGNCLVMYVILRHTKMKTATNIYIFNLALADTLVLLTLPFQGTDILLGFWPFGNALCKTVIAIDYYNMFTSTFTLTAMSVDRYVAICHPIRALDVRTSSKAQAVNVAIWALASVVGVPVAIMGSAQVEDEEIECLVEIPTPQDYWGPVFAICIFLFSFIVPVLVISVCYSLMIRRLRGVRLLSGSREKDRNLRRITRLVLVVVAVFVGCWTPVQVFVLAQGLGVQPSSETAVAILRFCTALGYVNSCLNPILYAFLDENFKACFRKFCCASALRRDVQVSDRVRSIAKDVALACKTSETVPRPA
T10 sequence (P41145 whole entry): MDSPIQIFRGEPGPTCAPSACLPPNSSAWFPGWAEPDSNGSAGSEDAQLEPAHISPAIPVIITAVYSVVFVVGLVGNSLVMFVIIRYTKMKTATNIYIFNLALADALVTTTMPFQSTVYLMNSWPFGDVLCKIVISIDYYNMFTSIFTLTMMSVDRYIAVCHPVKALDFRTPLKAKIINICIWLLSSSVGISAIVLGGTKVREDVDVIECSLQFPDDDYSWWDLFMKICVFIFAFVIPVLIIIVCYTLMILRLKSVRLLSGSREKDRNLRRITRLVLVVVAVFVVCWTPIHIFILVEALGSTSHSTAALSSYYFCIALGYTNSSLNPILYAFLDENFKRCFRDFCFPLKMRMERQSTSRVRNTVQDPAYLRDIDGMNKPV
T8 sequence (P33032 whole entry): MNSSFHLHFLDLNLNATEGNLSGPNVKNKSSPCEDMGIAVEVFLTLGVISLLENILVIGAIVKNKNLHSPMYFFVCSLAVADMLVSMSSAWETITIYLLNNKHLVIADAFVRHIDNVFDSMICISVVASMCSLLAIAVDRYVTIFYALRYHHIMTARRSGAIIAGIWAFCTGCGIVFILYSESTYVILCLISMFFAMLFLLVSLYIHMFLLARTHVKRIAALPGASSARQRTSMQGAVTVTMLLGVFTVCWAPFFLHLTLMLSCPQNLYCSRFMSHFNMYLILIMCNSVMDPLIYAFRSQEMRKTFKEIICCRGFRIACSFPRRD
T2 sequence (P35372 whole entry): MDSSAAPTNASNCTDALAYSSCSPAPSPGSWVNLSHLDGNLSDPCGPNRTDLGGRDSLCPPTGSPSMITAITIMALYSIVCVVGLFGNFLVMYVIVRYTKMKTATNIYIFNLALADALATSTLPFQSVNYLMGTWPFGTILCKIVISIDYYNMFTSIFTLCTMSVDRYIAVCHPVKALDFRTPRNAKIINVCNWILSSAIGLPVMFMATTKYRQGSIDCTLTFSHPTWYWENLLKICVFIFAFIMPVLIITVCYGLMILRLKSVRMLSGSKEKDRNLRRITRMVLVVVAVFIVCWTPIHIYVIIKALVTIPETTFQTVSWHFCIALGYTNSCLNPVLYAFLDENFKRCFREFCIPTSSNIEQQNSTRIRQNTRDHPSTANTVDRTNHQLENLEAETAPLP
T5 sequence (P41143 whole entry): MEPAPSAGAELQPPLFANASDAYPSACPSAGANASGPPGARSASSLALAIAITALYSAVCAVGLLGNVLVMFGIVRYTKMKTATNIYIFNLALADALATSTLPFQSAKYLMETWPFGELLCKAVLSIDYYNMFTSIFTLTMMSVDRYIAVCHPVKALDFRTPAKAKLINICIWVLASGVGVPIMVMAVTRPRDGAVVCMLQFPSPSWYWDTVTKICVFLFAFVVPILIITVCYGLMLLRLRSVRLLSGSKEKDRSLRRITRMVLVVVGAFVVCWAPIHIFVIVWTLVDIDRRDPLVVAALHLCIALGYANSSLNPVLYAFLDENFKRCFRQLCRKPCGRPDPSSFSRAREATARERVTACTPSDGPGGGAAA

SMILES | A8 radioligand binding inhibition [1] | A7 radioligand binding inhibition [2] | A3 radioligand binding inhibition [3] | A6 radioligand binding inhibition [4] | A1 radioligand binding inhibition [5] | A9 radioligand binding inhibition ([6]; human NPY-Y1 membranes) | A11 radioligand binding inhibition [7] | A5 radioligand binding inhibition [8] | A10 radioligand binding inhibition ([9]; human ORL1 membranes) | A2 radioligand binding inhibition [10] | A4 radioligand binding inhibition [11] | A8: inhibition of radioligand binding, human neurokinin (NK1) ([1]; [125I]-Substance P) | A6: inhibition of radioligand binding, human melanin-concentrating hormone (MCH1) [4] | A1: inhibition of radioligand binding, human δ-opioid (DOP) ([5]; [3H]-Bremazocine) | A9: inhibition of radioligand binding, human neuropeptide Y (NPY-Y1) ([6]; [125I]-PYY) | A11: inhibition of radioligand binding, mouse urotensin (mUR2) ([7]; [125I]-Urotensin II) | A5: inhibition of radioligand binding, human melanocortin (MC5) ([8]; [125I]-NDP-αMSH) | A2: inhibition of radioligand binding, human κ-opioid (KOP) ([10]; [3H]-Diprenorphine) | A4: inhibition of radioligand binding, human melanocortin (MC4) ([11]; [125I]-NDP-αMSH) | further results
COC[C@H]1OC(OCc2ccccc2)[C@H](NC(=O)CCCN)[C@@H](OCc2ccc3ccccc3c2)[C@@H]1O (stereo partly shown) [compound 26] | + (“+” indicates greater than 50% inhibition at 10 μM) | − (“−” indicates less than 50% inhibition at 10 μM) | − (“−” indicates less than 50% inhibition at 10 μM) | − (“−” indicates less than 50% inhibition at 10 μM) | − (“−” indicates less than 50% inhibition at 10 μM) | − (“−” indicates less than 50% inhibition at 10 μM) | − (“−” indicates less than 50% inhibition at 10 μM) | − (“−” indicates less than 50% inhibition at 10 μM) | − (“−” indicates less than 50% inhibition at 10 μM) | − (“−” indicates less than 50% inhibition at 10 μM) | − (“−” indicates less than 50% inhibition at 10 μM) |  |  |  |  |  |  |  |  | 
N=C(N)NCCC(=O)NC1C(OCc2ccc(-c3ccccc3)cc2)OC(COCc2ccc3ccccc3c2)C(O)C1OCc1ccc(-c2ccccc2)cc1 (stereo not shown) [compound 414] |  |  |  |  |  |  |  |  |  |  |  |  |  |  |  |  |  |  |  | A8: inhibition of radioligand binding ([1]; [125I]-Substance P, human NK1 membranes): + (“+” indicates greater than 50% inhibition at 10 μM); A7: inhibition of radioligand binding ([2]; [3H]-Naloxone, human MOP membranes): − (“−” indicates less than 50% inhibition at 10 μM); A3: inhibition of radioligand binding ([3]; [125I]-NDP-αMSH, human MC3 membranes): − (“−” indicates less than 50% inhibition at 10 μM); A6: inhibition of radioligand binding ([4]; [125I]-S36057, human MCH1 membranes): − (“−” indicates less than 50% inhibition at 10 μM); A1: inhibition of radioligand binding ([5]; [3H]-Bremazocine, human DOP membranes): − (“−” indicates less than 50% inhibition at 10 μM); A9: inhibition of radioligand binding ([6]; [125I]-PYY, human NPY-Y1 membranes): − (“−” indicates less than 50% inhibition at 10 μM); A11: inhibition of radioligand binding ([7]; [125I]-Urotensin II, mouse mUR2 membranes): − (“−” indicates less than 50% inhibition at 10 μM); A5: inhibition of radioligand binding ([8]; [125I]-NDP-αMSH, human MC5 membranes): + (“+” indicates greater than 50% inhibition at 10 μM); A10: inhibition of radioligand binding ([9]; [125I]-Nociceptin, human ORL1 membranes): − (“−” indicates less than 50% inhibition at 10 μM); A2: inhibition of radioligand binding ([10]; [3H]-Diprenorphine, human KOP membranes): − (“−” indicates less than 50% inhibition at 10 μM); A4: inhibition of radioligand binding ([11]; [125I]-NDP-αMSH, human MC4 membranes): − (“−” indicates less than 50% inhibition at 10 μM)
N=C(N)NCC(=O)NC1C(OCc2ccc(Cl)cc2)OC(COCc2ccccc2)C(O)C1OCc1ccc(Cl)cc1 (single isomer, unassigned) [compound 509] |  |  |  |  |  |  |  |  |  |  |  | + (“+” indicates greater than 50% inhibition at 10 μM) | + (“+” indicates greater than 50% inhibition at 10 μM) | − (“−” indicates less than 50% inhibition at 10 μM) | − (“−” indicates less than 50% inhibition at 10 μM) | − (“−” indicates less than 50% inhibition at 10 μM) | + (“+” indicates greater than 50% inhibition at 10 μM) | − (“−” indicates less than 50% inhibition at 10 μM) | + (“+” indicates greater than 50% inhibition at 10 μM) | A7: inhibition of radioligand binding, human μ-opioid (MOP) ([2]; [3H]-Naloxone, 10 µM): + (“+” indicates greater than 50% inhibition at 10 μM); A3: inhibition of radioligand binding, human melanocortin (MC3) ([3]; [125I]-NDP-αMSH, 10 µM): − (“−” indicates less than 50% inhibition at 10 μM); A10: inhibition of radioligand binding, human opioid (ORL1) ([9]; [125I]-Nociceptin, 10 µM): − (“−” indicates less than 50% inhibition at 10 μM)
CO[C@H]1[C@H](O)[C@@H](COCc2ccc3ccccc3c2)OC(OCc2ccc(Cl)cc2)[C@@H]1NC(=O)CNC(=N)N (stereo partly shown) [compound 355] |  |  |  |  |  |  |  |  |  |  |  | + (“+” indicates greater than 50% inhibition at 10 μM) | − (“−” indicates less than 50% inhibition at 10 μM) | − (“−” indicates less than 50% inhibition at 10 μM) | − (“−” indicates less than 50% inhibition at 10 μM) | − (“−” indicates less than 50% inhibition at 10 μM) | + (“+” indicates greater than 50% inhibition at 10 μM) | − (“−” indicates less than 50% inhibition at 10 μM) | + (“+” indicates greater than 50% inhibition at 10 μM) | A7: inhibition of radioligand binding, human μ-opioid (MOP) ([2]; [3H]-Naloxone): − (“−” indicates less than 50% inhibition at 10 μM); A3: inhibition of radioligand binding, human melanocortin (MC3) ([3]; [125I]-NDP-αMSH): − (“−” indicates less than 50% inhibition at 10 μM); A10: inhibition of radioligand binding, human opioid (ORL1) ([9]; [125I]-Nociceptin): − (“−” indicates less than 50% inhibition at 10 μM)
COC[C@H]1OC(OCc2ccc(-c3ccccc3)cc2)[C@H](NC(=O)CCCNC(=N)N)[C@@H](OCc2ccc3ccccc3c2)[C@@H]1O (stereo partly shown) [compound 6] | + (“+” indicates greater than 50% inhibition at 10 μM) | + (“+” indicates greater than 50% inhibition at 10 μM) | − (“−” indicates less than 50% inhibition at 10 μM) | + (“+” indicates greater than 50% inhibition at 10 μM) | − (“−” indicates less than 50% inhibition at 10 μM) | − (“−” indicates less than 50% inhibition at 10 μM) | − (“−” indicates less than 50% inhibition at 10 μM) | + (“+” indicates greater than 50% inhibition at 10 μM) | − (“−” indicates less than 50% inhibition at 10 μM) | + (“+” indicates greater than 50% inhibition at 10 μM) | − (“−” indicates less than 50% inhibition at 10 μM) |  |  |  |  |  |  |  |  | 
